Test results reported in patent US11879021B2, “Cyclic peptides and uses thereof” (UNIVERSITÉ DE MONTRÉAL, priority 2016, dated 2024).

Key:
[1] = system: R-FSL-1 (TLR2 agonist)-induced TNF-α and CCL-2 release in RAW macrophages; assay: R-FSL-1-induced TNF-α and CCL-2 release in RAW macrophages; type: cell-based, murine; settings: 10^−7 M
Description: The murine RAW1 macrophage cell line was obtained from American Type Cell Collection (ATCC #TIB-71). RAW cells were seeded at 150,000 cells per well in a 48-well plate (Costar® #3548) and weaned overnight in medium (DMEM supplemented 1% penicillin/streptomycin) at 37° C. with 5% CO2. The next day, the medium was changed to DMEM-1% penicillin/streptomycin supplemented with 0.2% BSA. The cells were first pretreated with 300 μL of azapeptides DBG178 (MPE-133, reference standard), 25 (MPE-210), 26 (MPE-266), 28 (MPE-268), 32 (MPE-267), 33 (MPE-298), 38 (MPE-308), 35 (MPE-300), 39 (MPE-310) and azaLys6-GHRP-6 (as negative control) at 10^-7M for 30 min. Then, […] of the TLR2 agonist, R-FSL-1 (300 ng/ml final concentration, R-FSL-1, Invivogen® #L7022) was added for 4 h period of incubation at 37° C. with 5% CO2. At the end of the incubation period, media were collected and stored at −80° C. for TNF-α and CCL-2 assays using ELISA kits (EbioScience® #88-7391 and #88-7324). Results were analyzed by analysis of variance (ANOVA) with post hoc comparisons using Dunnett's test with a statistical software package (Graph Pad Prism® version 7.0). P<0.05 was considered statistically significant.

[2] = system: mice exposed to intense blue light; type: in vivo; settings: 289 nmol/kg daily s.c. for 7 days
Excerpt: The acute model of light-induced retinal degeneration uses short exposure to blue light to induce photoreceptor cell death leading to loss of vision (Grimm and Remé, Methods Mol Biol. 2013; 935: 87-97). Mice were exposed mice to intense blue light (wavelength=425 nm; exposure intensity=6000 lux) for five (5) successive days. The treatment was started one day after start of blue-light exposure (D1), for seven (7) successive days of daily subcutaneous (s.c) administration at 289 nmol/kg of test item solutions (MPE-001 and MPE-298). On Day 7, mice were dark adapted for electroretinography (ERG) analysis. […]
ERGs were recorded from wildtype and age matched knockout mice on Espion® ERG Diagnosys machine and a ColorDome® Ganzfeld stimulator (Diagnosys LLC, Lowell, MA). […]
Flash ERG were measured using corneal DTL Plus electrodes (Diagnosys® LLC). […] Scotopic responses were simultaneously recorded from both eyes of the dark-adapted animals at the following increasing light intensities: 0.5, 1.0, 3.0 and 10.0 cd-s/m^2. […] The amplitude and latency of major ERG components were measured with the Espion® software (Diagnosys® LLC). […] The ERG a-wave amplitudes were measured from the baseline to the primary negative peak and the b-wave was measured from the trough of the a-wave to the maximum of the […] positive peak. […]

`C=CCN1CC#CCN(NC(=O)[C@H](C)N)C(=O)N[C@H](Cc2c[nH]c3ccccc23)C(=O)N[C@@H](C)C(=O)N[C@@H](Cc2c[nH]c3ccccc23)C(=O)N[C@H](Cc2ccccc2)C(=O)N[C@H](C(N)=O)CCCC1` [MPE-298] was tested. Which “effect on R-FSL-1-induced CCL-2 release” value [1] did it give?
The value was “significant inhibitory effect”.

And the “effect on R-FSL-1-induced TNF-α release” value [1]?
Its value is “significant inhibitory effect”.

And the “subretinal inflammation (immune cell infiltration, notably IL-1β-expressing immune cells, in the retina)” value ([2]; F4/80-positive cells in RPE flatmounts)?
The value was “reduce”.

And the “outer nuclear layer (ONL) thickness” value ([2]; mice exposed to blue light 6000 lux)?
Its value is “preserved”.
